Data from publication PMC8763936 (Investigational New Drugs, 2021).
Several values for one entry are separate records, joined by “and”; a condition that tells them apart may be missing. Equal entries are not always repeated. Where two headings read alike, the source gives them in different places. Marks after values point to notes of the source that are not given here.

Assays:
[1] = test system: CYP3A4/5; test: In vitro CYP inhibition (direct and time-dependent) in human liver microsomes; format: in vitro ADME
[2] = target: T1, MDR1 (P-gp) (Homo sapiens, UniProt P08183); test: In vitro P-gp inhibition; format: in vitro ADME
T1 construct: expressed in transfected cells

[3] = test system: CYPs 1A2, 2B6, 2C8, 2C9, 2C19 and 2D6 (all tested CYPs but CYP3A4/5); test: In vitro CYP inhibition in human liver microsomes, CYPs not named one by one; format: in vitro ADME; settings: human, read-out: IC50 for the other CYPs tested
[4] = test system: CYP1A2; test: Induction of CYP enzymes in human hepatocytes; settings: for Relative Effectiveness ± SD Based on CYP Activity / Relative Effectiveness ± SD Based on CYP mRNA: percent of positive control
Procedure: (§1) In vitro induction of CYP mRNA (CYPs 1A2, 2C8, 2C9 and 3A4) or enzyme activity (CYPs 1A2, 2C19 and 3A4) was assessed in human hepatocytes.

[5] = test system: CYP3A4; test: Induction of CYP enzymes in human hepatocytes; settings: for Relative Effectiveness ± SD Based on CYP Activity / Relative Effectiveness ± SD Based on CYP mRNA: percent of positive control
Procedure: as §1

[6] = Study 1 Cohort 1: single dose entrectinib alone or with itraconazole, plasma pharmacokinetics; settings: for M5/Entrectinib ratio, AUCinf / M5/Entrectinib ratio, Cmax: arithmetic mean (CV)
Procedure: All doses of study medication were administered at the study center.

[7] = target: T2, CYP2B6 (Homo sapiens, UniProt P20813); test: In vitro CYP inhibition in human liver microsomes; format: in vitro ADME; set-up: purchased Corning-Gentest
T2 sequence (P20813 1-491): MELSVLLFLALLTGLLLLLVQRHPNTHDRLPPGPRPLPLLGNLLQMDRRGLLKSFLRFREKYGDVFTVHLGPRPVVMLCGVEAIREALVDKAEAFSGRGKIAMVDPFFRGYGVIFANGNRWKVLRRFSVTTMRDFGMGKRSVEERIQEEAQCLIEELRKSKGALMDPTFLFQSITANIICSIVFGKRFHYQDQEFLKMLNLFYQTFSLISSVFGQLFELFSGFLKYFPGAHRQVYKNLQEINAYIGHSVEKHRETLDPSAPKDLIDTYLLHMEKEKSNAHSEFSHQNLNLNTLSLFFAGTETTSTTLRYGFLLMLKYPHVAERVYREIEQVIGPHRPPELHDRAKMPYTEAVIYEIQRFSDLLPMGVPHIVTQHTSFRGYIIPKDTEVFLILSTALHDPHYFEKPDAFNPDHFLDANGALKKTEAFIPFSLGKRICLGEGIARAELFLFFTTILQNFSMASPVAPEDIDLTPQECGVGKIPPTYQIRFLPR

[8] = target: T3, CYP2D6 (Homo sapiens, UniProt P10635); test: In vitro CYP inhibition in human liver microsomes; format: in vitro ADME; set-up: purchased Corning-Gentest
[9] = target: CYP2C19 (Homo sapiens, UniProt P33261); test: Metabolism by recombinantly expressed CYP enzymes; set-up: Entrectinib Metabolism to M5: key to the marks not given beside the values
[10] = target: T3, CYP2D6; test: Metabolism by recombinantly expressed CYP enzymes
[11] = target: CYP3A5 (Homo sapiens, UniProt P20815); test: Metabolism by recombinantly expressed CYP enzymes; set-up: Entrectinib Metabolism to M5 / M5 Metabolism: key to the marks not given beside the values
[12] = target: T4, CYP2C8 (Homo sapiens, UniProt P10632); test: In vitro CYP inhibition in human liver microsomes; format: in vitro ADME; set-up: was investigated in human liver microsomes; from tissue; host or cells: pooled human liver microsomes; settings: for IC50: human liver microsomes
T4 sequence (P10632 1-490): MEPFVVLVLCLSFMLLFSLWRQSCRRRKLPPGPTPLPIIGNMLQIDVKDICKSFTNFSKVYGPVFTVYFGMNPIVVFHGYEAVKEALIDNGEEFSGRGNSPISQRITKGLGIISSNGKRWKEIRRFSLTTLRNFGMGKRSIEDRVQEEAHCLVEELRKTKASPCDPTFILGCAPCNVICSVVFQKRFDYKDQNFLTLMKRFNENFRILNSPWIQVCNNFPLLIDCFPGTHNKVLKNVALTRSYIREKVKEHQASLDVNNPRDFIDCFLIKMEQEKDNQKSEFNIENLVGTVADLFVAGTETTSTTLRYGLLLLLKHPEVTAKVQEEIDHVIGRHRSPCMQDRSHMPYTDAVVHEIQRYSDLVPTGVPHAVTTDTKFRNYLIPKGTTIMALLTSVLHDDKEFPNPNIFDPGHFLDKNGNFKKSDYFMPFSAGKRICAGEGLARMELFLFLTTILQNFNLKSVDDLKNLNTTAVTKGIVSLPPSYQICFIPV

[13] = test system: human CYPs 1A2, 2B6, 2C8, 2C9, 2C19, 2D6 and 3A; test: In vitro CYP inhibition in human liver microsomes, CYPs not named one by one; format: in vitro ADME; settings: entrectinib: all but CYP3A4/5, M5: all but CYP2C8, read-out: IC50 for the other CYPs tested
[14] = test system: CYP2C19; test: Induction of CYP enzymes in human hepatocytes; settings: percent of positive control
Procedure: as §1

[15] = test system: CYP2B6; test: Induction of CYP enzymes in human hepatocytes; format: in vitro ADME; settings: percent of positive control
[16] = test system: CYPs 1A2, 2B6, 2C19, and 3A4; test: Induction of CYP enzymes in human hepatocytes, CYPs tested taken together; format: in vitro ADME
[17] = Estimated free plasma Cmax in patients treated at 600 mg QD; format: in vivo, human; settings: unbound fraction of 1% used
[18] = target: P-gp (Homo sapiens, UniProt P08183); test: In vitro P-gp substrate assay (Caco-2 and MDCKII-MDR1 cells); format: in vitro ADME; set-up: expressed in transfected cells; host or cells: MDCKII-MDR1 cells; also Caco-2 cells
[19] = Entrectinib 100 mg alone, geometric mean (geometric CV)
[20] = Entrectinib 100 mg with itraconazole 200 mg QD, geometric mean (geometric CV)
[21] = Entrectinib 100 mg with itraconazole

Chain of CYP3A5 (P20815 whole entry): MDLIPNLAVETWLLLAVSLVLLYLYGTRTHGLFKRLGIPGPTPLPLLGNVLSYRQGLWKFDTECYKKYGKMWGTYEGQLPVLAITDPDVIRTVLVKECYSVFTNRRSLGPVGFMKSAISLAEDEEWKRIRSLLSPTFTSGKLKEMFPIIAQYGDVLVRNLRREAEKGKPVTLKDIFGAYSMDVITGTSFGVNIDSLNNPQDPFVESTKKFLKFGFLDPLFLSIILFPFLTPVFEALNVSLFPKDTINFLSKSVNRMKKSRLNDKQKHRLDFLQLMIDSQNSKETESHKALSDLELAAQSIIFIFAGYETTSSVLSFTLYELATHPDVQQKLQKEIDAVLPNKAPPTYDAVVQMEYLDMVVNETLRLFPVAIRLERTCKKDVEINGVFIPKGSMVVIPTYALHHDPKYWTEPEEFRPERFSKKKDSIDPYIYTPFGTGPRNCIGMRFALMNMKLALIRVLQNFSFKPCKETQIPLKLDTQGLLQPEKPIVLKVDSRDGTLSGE
T3 sequence (P10635 whole entry): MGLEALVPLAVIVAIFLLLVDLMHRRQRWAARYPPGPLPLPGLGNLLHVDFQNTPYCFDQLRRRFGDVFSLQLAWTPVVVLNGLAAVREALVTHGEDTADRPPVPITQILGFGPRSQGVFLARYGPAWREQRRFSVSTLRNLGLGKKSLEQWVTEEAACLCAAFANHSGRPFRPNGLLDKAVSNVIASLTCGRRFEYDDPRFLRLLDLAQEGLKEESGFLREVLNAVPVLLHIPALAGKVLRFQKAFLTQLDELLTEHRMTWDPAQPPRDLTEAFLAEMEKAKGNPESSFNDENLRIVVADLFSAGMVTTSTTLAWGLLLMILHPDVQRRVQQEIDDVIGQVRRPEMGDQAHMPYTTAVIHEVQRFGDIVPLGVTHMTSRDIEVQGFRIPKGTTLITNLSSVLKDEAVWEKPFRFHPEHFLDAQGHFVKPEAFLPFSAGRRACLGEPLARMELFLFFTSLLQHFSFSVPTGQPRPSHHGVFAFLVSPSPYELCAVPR
Chain of CYP2C19 (Homo sapiens, UniProt P33261) (P33261 whole entry): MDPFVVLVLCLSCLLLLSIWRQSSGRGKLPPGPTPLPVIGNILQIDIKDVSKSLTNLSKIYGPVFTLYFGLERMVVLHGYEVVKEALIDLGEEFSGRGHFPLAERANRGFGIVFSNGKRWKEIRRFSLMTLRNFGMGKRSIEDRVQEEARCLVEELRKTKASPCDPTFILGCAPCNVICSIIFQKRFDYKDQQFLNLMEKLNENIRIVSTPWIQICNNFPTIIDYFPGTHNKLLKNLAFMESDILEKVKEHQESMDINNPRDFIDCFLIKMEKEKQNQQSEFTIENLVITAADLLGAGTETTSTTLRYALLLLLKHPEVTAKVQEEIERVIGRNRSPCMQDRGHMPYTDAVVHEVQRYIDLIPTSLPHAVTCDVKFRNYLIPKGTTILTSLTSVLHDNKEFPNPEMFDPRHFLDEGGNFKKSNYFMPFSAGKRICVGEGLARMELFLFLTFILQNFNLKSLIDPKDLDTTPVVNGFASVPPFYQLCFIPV
T1 sequence (P08183 whole entry): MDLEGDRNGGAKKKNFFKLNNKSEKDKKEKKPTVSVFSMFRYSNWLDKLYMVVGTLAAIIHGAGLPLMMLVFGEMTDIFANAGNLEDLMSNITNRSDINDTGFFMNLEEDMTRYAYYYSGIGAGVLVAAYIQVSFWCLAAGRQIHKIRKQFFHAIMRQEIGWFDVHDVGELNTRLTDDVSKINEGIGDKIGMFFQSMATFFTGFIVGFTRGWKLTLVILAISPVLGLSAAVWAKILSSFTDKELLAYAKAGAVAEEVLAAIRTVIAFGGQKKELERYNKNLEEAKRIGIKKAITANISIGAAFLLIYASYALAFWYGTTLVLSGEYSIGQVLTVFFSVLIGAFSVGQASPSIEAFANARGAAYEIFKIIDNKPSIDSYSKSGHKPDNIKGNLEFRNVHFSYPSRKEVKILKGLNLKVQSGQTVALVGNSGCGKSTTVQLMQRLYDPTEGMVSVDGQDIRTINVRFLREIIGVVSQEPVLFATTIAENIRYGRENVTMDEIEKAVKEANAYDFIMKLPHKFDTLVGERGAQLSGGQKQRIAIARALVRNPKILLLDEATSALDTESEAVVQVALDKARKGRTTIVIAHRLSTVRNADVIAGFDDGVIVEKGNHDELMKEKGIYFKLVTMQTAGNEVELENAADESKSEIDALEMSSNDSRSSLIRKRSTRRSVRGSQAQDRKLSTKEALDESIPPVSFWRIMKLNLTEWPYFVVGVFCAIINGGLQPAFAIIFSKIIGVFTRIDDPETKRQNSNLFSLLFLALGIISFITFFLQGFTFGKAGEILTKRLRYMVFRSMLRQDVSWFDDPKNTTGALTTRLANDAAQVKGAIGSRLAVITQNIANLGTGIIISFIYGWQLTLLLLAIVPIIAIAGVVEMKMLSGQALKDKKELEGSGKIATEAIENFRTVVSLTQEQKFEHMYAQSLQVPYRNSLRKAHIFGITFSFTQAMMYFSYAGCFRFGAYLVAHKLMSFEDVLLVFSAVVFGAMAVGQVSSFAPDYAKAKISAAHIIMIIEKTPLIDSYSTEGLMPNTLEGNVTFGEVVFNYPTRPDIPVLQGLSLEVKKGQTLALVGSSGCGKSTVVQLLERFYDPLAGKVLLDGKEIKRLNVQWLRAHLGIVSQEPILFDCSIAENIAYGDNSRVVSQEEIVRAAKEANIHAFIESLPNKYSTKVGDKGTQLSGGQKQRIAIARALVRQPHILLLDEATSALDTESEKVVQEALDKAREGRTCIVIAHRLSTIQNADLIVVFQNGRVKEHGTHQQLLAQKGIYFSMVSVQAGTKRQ
Chain of P-gp (P08183 whole entry): as above

CN1CCN(c2ccc(C(=O)Nc3n[nH]c4ccc(Cc5cc(F)cc(F)c5)cc34)c(NC3CCOCC3)c2)CC1 [Entrectinib]
IC50 ([1]; human, microsomes): 2 µM | IC50 [2]: 1.33 µM and 1.3 µM | IC50 [3]: > 10 µM | induction of CYP1A2 mRNA or enzyme activity ([4]; human hepatocytes): did not significantly induce | CYP3A4 induction in vitro, in words ([5]; in vitro): weak CYP3A4 inducer | t1/2 [6, 19]: 20.2 (17%) h | t1/2 [6, 20]: 49.8 (22%) h | increase of AUCinf ([6]; entrectinib coadministered with itraconazole vs alone): 504% | Tmax ([6]; human, in vivo): 5 h | AUC(0-inf) ([6]; human, in vivo, 100 mg): 6.19 µM·h | Cmax ([6]; human, in vivo, 100 mg): 358 nM | Tmax ([6]; human, in vivo, 100 mg): 2 h | half-life ([6]; human, in vivo, 100 mg, t1/2, Entrectinib 100 mg alone, geometric mean (geometric CV)): 20 h | half-life ([6]; human, in vivo, t1/2, Entrectinib 100 mg with itraconazole 200 mg QD, geometric mean (geometric CV)): 50 h | median Tmax later ([6]; with itraconazole vs entrectinib alone): approximately 3 h | IC50 [7]: > 10 µM | IC50 [8]: > 10 µM | Entrectinib Metabolism to M5 [9]: ++ | Entrectinib Metabolism to other Products [9]: - | Entrectinib Metabolism to M5 [10]: + | Entrectinib Metabolism to other Products [10]: - | Entrectinib Metabolism to M5 [11]: ++ | Entrectinib Metabolism to other Products [11]: + | IC50 [12]: > 10 µM

O=C(Nc1n[nH]c2ccc(Cc3cc(F)cc(F)c3)cc12)c1ccc(N2CCNCC2)cc1NC1CCOCC1 [M5]
IC50 ([1]; human liver microsomes, read-out: IC50): > 10 µM | IC50 [2]: 10.1 µM and 10 µM | IC50 [13]: > 10 µM | Relative Effectiveness ± SD Based on CYP Activity ([4]; M5 0.5 µM): 0.575% ±0.657 | Relative Effectiveness ± SD Based on CYP mRNA ([4]; M5 0.5 µM): 0.22% ±0.23 | Relative Effectiveness ± SD Based on CYP Activity ([4]; M5 2.5 µM): 1.30% ±1.4 | Relative Effectiveness ± SD Based on CYP mRNA ([4]; M5 2.5 µM): 1.22% ±0.87 | Relative Effectiveness ± SD Based on CYP Activity ([4]; M5 10 µM): 0.445% ±0.27 | Relative Effectiveness ± SD Based on CYP mRNA ([4]; M5 10 µM): 1.70% ±0.15 | Relative Effectiveness ± SD Based on CYP Activity ([14]; M5 0.5 µM): -1.21% ±0.94 | Relative Effectiveness ± SD Based on CYP Activity ([14]; M5 2.5 µM): -3.22% ±3.41 | Relative Effectiveness ± SD Based on CYP Activity ([14]; M5 10 µM, n=2): -9.87% ^a | Relative Effectiveness ± SD Based on CYP Activity ([5]; M5 0.5 µM): 1.25% ±1.17 | Relative Effectiveness ± SD Based on CYP mRNA ([5]; M5 0.5 µM): 1.16% ±1.47 | Relative Effectiveness ± SD Based on CYP Activity ([5]; M5 2.5 µM): 4.61% ±3.06 | Relative Effectiveness ± SD Based on CYP mRNA ([5]; M5 2.5 µM): 5.9% ±5.01 | Relative Effectiveness ± SD Based on CYP Activity ([5]; M5 10 µM): 5.42% ±4.45 | Relative Effectiveness ± SD Based on CYP mRNA ([5]; M5 10 µM): 16.5% ±11.2 | impact on the mRNA expression or activity of CYP3A4 ([5]; human hepatocytes): no significant impact | Relative Effectiveness ± SD Based on CYP Activity ([15]; M5 0.5 µM): 2.98% ±2.91 | Relative Effectiveness ± SD Based on CYP mRNA ([15]; M5 0.5 µM): 4.22% ±4.37 | Relative Effectiveness ± SD Based on CYP Activity ([15]; M5 2.5 µM): 9.02% ±8.75 | Relative Effectiveness ± SD Based on CYP mRNA ([15]; M5 2.5 µM): 19.3% ±11.4 | Relative Effectiveness ± SD Based on CYP Activity ([15]; M5 10 µM): 9.56% ±8.52 | Relative Effectiveness ± SD Based on CYP mRNA ([15]; M5 10 µM): 26.5% ±10.7 | impact on the activities of the CYPs tested [16]: no significant impact | AUCinf ([6]; Entrectinib 100 mg alone, single dose, healthy subjects, fasted, geometric mean (geometric CV)): 1710 (30%) nM•h | M5/Entrectinib ratio, AUCinf ([6]; Entrectinib 100 mg alone): 0.288 (28%) | M5/Entrectinib ratio, Cmax ([6]; Entrectinib 100 mg alone): 0.151 (26%) | Cmax [6, 19]: 52.3 nM | t1/2 [6, 19]: 41 h and 40.8 (22%) h | Tmax ([6]; Entrectinib 100 mg alone, median (minimum, maximum)): 5.0 (3.0, 5.0) h | AUCinf [6, 20]: 4310 (30%) nM•h | Cmax [6, 20]: 31.5 nM | t1/2 [6, 20]: 88.0 (32%) h | Tmax ([6]; Entrectinib 100 mg with itraconazole 200 mg QD, median (minimum, maximum)): 6.0 (5.0, 48.0) h | M5/Entrectinib ratio, AUCinf [6, 21]: 0.124 (29%) | M5/Entrectinib ratio, Cmax [6, 21]: 0.0538 (34%) | increase in AUCinf ([6]; coadministration of itraconazole with entrectinib): approximately 2.5 fold | M5 exposure as share of entrectinib exposure (mean M5/entrectinib ratio for AUCinf) ([6]; entrectinib 100 mg alone): approximately 29% | M5 exposure as share of entrectinib exposure (mean M5/entrectinib ratio for AUCinf) ([6]; entrectinib 100 mg coadministered with itraconazole): 12% | estimated free Cmax in plasma [17]: 13.4 nM | IC50 [7]: > 10 µM | IC50 [8]: > 10 µM | M5 Metabolism [9]: - | M5 Metabolism [10]: - | M5 Metabolism [11]: ++ | P-gp substrate status [18]: substrate | free Cmax lower than the CYP2C8 IC50 ([12]; free Cmax 0.0134 μM vs IC50 about 4.9 μM): > 300 fold | IC50 [12]: ~4.9 µM and 4.9 µM
